# Test: recombinant UMI read abundance after kanamycin selection (control-corrected) (log10(CPM+1)); higher = more efficient recombination; extreme values may be limits of the assay; sequences stand for … in AGTGCAGAGAAAATCGGCCAGTTTTCTCTGCCTGCAGTCCGCATGCCGTGGGACCCCTTGGGTTCTAACCTGTTGCCTAGATTTATGCAGCGGACTGCCTTTCTCCCAAAGTGATAAACCGG…AGGTTGGTTTCACT; site = the 11-nt donor
# Procedure, shortened: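 Two replicates each of selected and unselected plating were used in this pooled Escherichia coli screen of donor and donor-binding-loop pairs for the IS621 bridge recombinase. Selection was with IPTG (0.07 mM) and kanamycin. Counts of recombinant UMIs, amplified across the donor–target junction, were converted to CPM, averaged, scaled by control-derived factors and reported as log10(CPM+1).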
# 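Further: IS621 bridge recombinase in Escherichia coli cells against a fixed T5 target plasmid.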
row,Sequence,recombinant UMI read abundance (log10)
1,CCGTTTGCATGGACCGGTTTTCCCGGTAATCCGTATTTGTG (site CCGTTGGCTCA),0.0153
2,CCGTTTGCATGGACCGGTTTTCCCGGTAATCCGTATTTGTG (site CCGTTTGCTCA),0
3,CCTAAAGCATGGACCGGTTTTCCCGGTAATCCGTATTTGAG (site CCTAAAGCTAT),0
4,CCTAAAGCATGGACCGGTTTTCCCGGTAATCCGTATTTGAG (site CCTAAAGCTCT),0.599
5,CCTAAAGCATGGACCGGTTTTCCCGGTAATCCGTATTTGAG (site CCTAAAGCTGT),0
6,CCTAAAGCATGGACCGGTTTTCCCGGTAATCCGTATTTGAG (site CCTAAAGCTTT),0
7,CCTAAAGCATGGACCGGTTTTCCCGGTAATCCGTATTTGCT (site CCTAAAGCTAA),0.00467
8,CCTAAAGCATGGACCGGTTTTCCCGGTAATCCGTATTTGCT (site CCTAAAGCTAC),0
9,CCTAAAGCATGGACCGGTTTTCCCGGTAATCCGTATTTGCT (site CCTAAAGCTAG),0
10,CCTAAAGCATGGACCGGTTTTCCCGGTAATCCGTATTTGCT (site CCTAAAGCTAT),0
11,CCTAAATCATGGACCGGTTTTCCCGGTAATCCGTATTTGCA (site CCTAAATCTTG),0
12,CCTAAGTCATGGACCGGTTTTCCCGGTAATCCGTATTTGCA (site CCTAAGTCTTG),0
13,CCTAATACATGGACCGGTTTTCCCGGTAATCCGTATTTGGT (site CCTAATACTAC),0
14,CCTAATACATGGACCGGTTTTCCCGGTAATCCGTATTTGGT (site CCTAATACTCC),0.0104
15,CCTAATACATGGACCGGTTTTCCCGGTAATCCGTATTTGGT (site CCTAATACTGC),0
16,CCTAATACATGGACCGGTTTTCCCGGTAATCCGTATTTGGT (site CCTAATACTTC),0
17,CCTAATACATGGACCGGTTTTCCCGGTAATCCGTATTTGTC (site CCTAATACTGA),0
18,CCTAATACATGGACCGGTTTTCCCGGTAATCCGTATTTGTC (site CCTAATACTGC),0
19,CCTAATACATGGACCGGTTTTCCCGGTAATCCGTATTTGTC (site CCTAATACTGG),0
20,CCTAATACATGGACCGGTTTTCCCGGTAATCCGTATTTGTC (site CCTAATACTGT),0
21,CCTAATGCATGGACCGGTTTTCCCGGTAATCCGTATTTGGC (site CCTAATACTGC),0
22,CCTAATGCATGGACCGGTTTTCCCGGTAATCCGTATTTGGC (site CCTAATCCTGC),0
23,CCTAATGCATGGACCGGTTTTCCCGGTAATCCGTATTTGGC (site CCTAATGCTGC),0
24,CCTAATGCATGGACCGGTTTTCCCGGTAATCCGTATTTGGC (site CCTAATTCTGC),0
25,CCTACGGCATGGACCGGTTTTCCCGGTAATCCGTATTTGCG (site CCTACGGCTCG),0.00682

row,Sequence,recombinant UMI read abundance (log10)
1,CCTATGGCATGGACCGGTTTTCCCGGTAATCCGTATTTGGT (site CCTATGGCTAC),0.012
2,CCTATTTCATGGACCGGTTTTCCCGGTAATCCGTATTTGAA (site CCTATTTCTTT),0
3,CCTCAGCCATGGACCGGTTTTCCCGGTAATCCGTATTTGGC (site CCTCAGCCTGC),0
4,CCTCCTTCATGGACCGGTTTTCCCGGTAATCCGTATTTGCT (site CCTCCTTCTAG),0
5,CCTCGTACATGGACCGGTTTTCCCGGTAATCCGTATTTGGT (site CCTCGTACTAC),0.0115
6,CCTGAACCATGGACCGGTTTTCCCGGTAATCCGTATTTGGT (site CCTGAACCTAC),0.00702
7,CCTGATACATGGACCGGTTTTCCCGGTAATCCGTATTTGTA (site CCTGATACTTA),0.326
8,CCTGCCCCATGGACCGGTTTTCCCGGTAATCCGTATTTGGC (site CCTGCCCCTGC),0
9,CCTGGCTCATGGACCGGTTTTCCCGGTAATCCGTATTTGCA (site CCTGGCTCTTG),0
10,CCTGTAACATGGACCGGTTTTCCCGGTAATCCGTATTTGCA (site CCTGTAACTTG),0
11,CCTGTACCATGGACCGGTTTTCCCGGTAATCCGTATTTGCG (site CCTGTACCTCG),0.0076
12,CCTTAGCCATGGACCGGTTTTCCCGGTAATCCGTATTTGAA (site CCTTAGCCTTT),0
13,CCTTATACATGGACCGGTTTTCCCGGTAATCCGTATTTGAG (site CCTTATACTCT),0.0212
14,CCTTCTCCATGGACCGGTTTTCCCGGTAATCCGTATTTGTG (site CCTTCTCCTCA),0.0156
15,CCTTCTTCATGGACCGGTTTTCCCGGTAATCCGTATTTGGG (site CCTTCTTCTCC),0.00401
16,CCTTCTTCATGGACCGGTTTTCCCGGTAATCCGTATTTGTC (site CCTTCTTCTGA),0
17,CCTTTAGCATGGACCGGTTTTCCCGGTAATCCGTATTTGTG (site CCATTAGCTCA),0.00718
18,CCTTTAGCATGGACCGGTTTTCCCGGTAATCCGTATTTGTG (site CCCTTAGCTCA),0.00968
19,CCTTTAGCATGGACCGGTTTTCCCGGTAATCCGTATTTGTG (site CCGTTAGCTCA),0.00885
20,CCTTTAGCATGGACCGGTTTTCCCGGTAATCCGTATTTGTG (site CCTTTAGCTCA),0.0063
21,CCTTTGCCATGGACCGGTTTTCCCGGTAATCCGTATTTGGC (site CCTTTGCCTGC),0
22,CCTTTGTCATGGACCGGTTTTCCCGGTAATCCGTATTTGGA (site CCTTTGTCTTC),0.00278
23,CGAAAAGCATGGACCGGTTTTCCCGGTAATCCGTATTTGCA (site CGAAAAGCTTG),0
24,CGAAAGACATGGACCGGTTTTCCCGGTAATCCGTATTTGGG (site CGAAAGACTCC),0.621
25,CGAAAGACATGGACCGGTTTTCCCGGTAATCCGTATTTGGT (site CGAAAGACTAC),2

row,Sequence,recombinant UMI read abundance (log10)
1,CGAAAGGCATGGACCGGTTTTCCCGGTAATCCGTATTTGCT (site AGAAAGGCTAG),0
2,CGAAAGGCATGGACCGGTTTTCCCGGTAATCCGTATTTGCT (site CGAAAGGCTAG),2.39
3,CGAAAGGCATGGACCGGTTTTCCCGGTAATCCGTATTTGCT (site GGAAAGGCTAG),0
4,CGAAAGGCATGGACCGGTTTTCCCGGTAATCCGTATTTGCT (site TGAAAGGCTAG),0
5,CGAACCACATGGACCGGTTTTCCCGGTAATCCGTATTTGTG (site CGAACCACTCA),0.523
6,CGAACGACATGGACCGGTTTTCCCGGTAATCCGTATTTGTT (site CGAACGACTAA),1.08
7,CGAACGACATGGACCGGTTTTCCCGGTAATCCGTATTTGTT (site CGACCGACTAA),0.00483
8,CGAACGACATGGACCGGTTTTCCCGGTAATCCGTATTTGTT (site CGAGCGACTAA),0.0306
9,CGAACGACATGGACCGGTTTTCCCGGTAATCCGTATTTGTT (site CGATCGACTAA),0.00769
10,CGAACTCCATGGACCGGTTTTCCCGGTAATCCGTATTTGGG (site CGAACTCCTCC),0.143
11,CGAAGACCATGGACCGGTTTTCCCGGTAATCCGTATTTGGG (site CGAAGACCTCC),0
12,CGAAGACCATGGACCGGTTTTCCCGGTAATCCGTATTTGGG (site CGACGACCTCC),0.0149
13,CGAAGACCATGGACCGGTTTTCCCGGTAATCCGTATTTGGG (site CGAGGACCTCC),0.0232
14,CGAAGACCATGGACCGGTTTTCCCGGTAATCCGTATTTGGG (site CGATGACCTCC),0.006
15,CGAAGTCCATGGACCGGTTTTCCCGGTAATCCGTATTTGCG (site CGAAGTCCTCG),1.21
16,CGAATAACATGGACCGGTTTTCCCGGTAATCCGTATTTGCC (site CGAATAACTGG),0.484
17,CGACAATCATGGACCGGTTTTCCCGGTAATCCGTATTTGAC (site CGACAATCTGT),2.86
18,CGACCAACATGGACCGGTTTTCCCGGTAATCCGTATTTGAT (site GAGGGGCCTTC),0.006
19,CGACCATCATGGACCGGTTTTCCCGGTAATCCGTATTTGGT (site CGACCATCTAC),0.825
20,CGACCATCATGGACCGGTTTTCCCGGTAATCCGTATTTGGT (site CGATCATCTAG),0
21,CGACCCTCATGGACCGGTTTTCCCGGTAATCCGTATTTGCT (site CGACCCTCTAG),3.63
22,CGACCCTCATGGACCGGTTTTCCCGGTAATCCGTATTTGCT (site CGATCATCTAG),0
23,CGACGACCATGGACCGGTTTTCCCGGTAATCCGTATTTGAC (site CGACGACCTGT),0
24,CGACGGTCATGGACCGGTTTTCCCGGTAATCCGTATTTGTC (site CGACGGTCTGA),2.77
25,CGACGTACATGGACCGGTTTTCCCGGTAATCCGTATTTGCT (site CGACGTACTAG),2.45

# Reference: the supplement of paper PMC11208160
